Data set [1] relates to trypsin. Description: Trypsin proteolytic resistance assay. Particulars: immobilized trypsin-agarose resin.
Description: (§1) Cell permeability of peptide drugs was determined by fluorescence measurement of TAMRA-labeled peptides in 96-well plates and ClarioStar Plus plate reader using BMG ClarioStar MARS software (version 4.20). […] Percent uptake was calculated as background-subtracted fluorescence absorbed by cells/fluorescence of peptide in media-only wells, then made relative to TAMRA-Alkyne. Three biological replicates (n = 3) were performed per cell line per treatment group. Peptide proteolysis was measured using immobilized Trypsin-agarose resin (Thermo Fisher) and quantification by LC-MS. […] In vivo pharmacokinetics were performed by the UACC Analytical Chemistry Shared Resource. […] The mice were fed NIH-31 irradiated pellets (Tekland Premier, Madison, Wisconsin), and reverse osmosis water was freely available. […] The average plasma concentration versus time data were analyzed using PKSolver (version 2.0) by a noncompartmental approach.
Data set [2] has as its target trypsin (Bos taurus, UniProt P00760).
Description: as §1
In data set [3] the test system is trypsin. Description: in vitro. Particulars: isolated enzyme trypsin.
Description: as §1
A short description of data set [4]: Circular dichroism, % alpha-helicity. The format is physicochemical. The conditions noted are these: CD, 20 mM NaH2PO4 pH 7.0, 20 °C, CDSSTR. As to the method: CD experiments were performed on a Jasco J-815 CD spectrometer equipped with a Jasco PTC-423S/15 temperature control and analysis utilizing Spectra Manager (version 2.0). Spectral measurements were made in quartz spectrophotometer cells with an optical cell path length of 1.0 mm (Starna Cells Inc.) using standard collection parameters: 20 °C, 190–260 nm, 0.5 nm step resolution, 50 nm/min scanning speed, 0.5 s response, 1 nm bandwidth, 8 accumulations. […] Secondary structure analysis, including % alpha-helicity, was performed using the CDSSTR method[58] on data reference set 4 basis spectra. The reliability of secondary structure predictions was quantified by the goodness-of-fit of the back-calculated spectrum to the experimental spectrum and reported as a normalized root-mean-square deviation (NRMSD).
(In general: Circular dichroism is the unequal absorption of left and right circularly polarised light.)

Data set [5] concerns the target T1, FAK FAT domain (Homo sapiens, UniProt Q05397).
T1 sequence (Q05397 914-1045 limits assumed): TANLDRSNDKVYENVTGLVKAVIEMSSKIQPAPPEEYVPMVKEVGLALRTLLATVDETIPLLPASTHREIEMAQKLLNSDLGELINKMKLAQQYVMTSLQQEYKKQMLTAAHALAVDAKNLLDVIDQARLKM
As to the kind of experiment: SPR binding to immobilized biotinylated FAK FAT. As for the experimental part: SPR binding studies were performed using biotinylated FAK FAT protein[51]. Briefly, SPR binding assays were performed on a ForteBio Pioneer FE SPR system using SPR running buffer (100 mM Tris-Cl pH 8.0, 200 mM NaCl, and 0.05% Tween-20). […] Desired immobilization levels were determined utilizing the following Eq. 1:1 Rmax=RproteinxMranalyte/MrproteinxVprotein where Rmax is the highest possible response of binding between the analyte and the protein, Rprotein is the change in response by the immobilization of the protein, Mr represents the mass of the analyte or protein, and Vprotein represents the number of binding sites on the protein. A target Rmax of approximately 100 RU was chosen.
All samples were diluted in the SPR buffer to a volume of 200 µl and injected using the OneStep gradient injection system at a flow rate of 150 µl/min. For a bulk standard control, a 3% (w\v) solution of sucrose in SPR buffer was used for injection. […] SPR data analysis utilized Qdat software (ForteBio, version 4.3.2 build 8) for normalization of the baseline prior to injection, channel alignment, and reference channel and blank subtraction.
On the technique in general: Surface plasmon resonance follows binding to a sensor surface in real time, without labels.

Data set [6] concerns the target T2, FAK FAT / TAMRA-paxillin LD2 L10D (Homo sapiens, UniProt Q05397).
T2 construct: assay was performed using FAK FAT protein and TAMRA-LD2 L10D peptide
T2 sequence (Q05397 919-1052): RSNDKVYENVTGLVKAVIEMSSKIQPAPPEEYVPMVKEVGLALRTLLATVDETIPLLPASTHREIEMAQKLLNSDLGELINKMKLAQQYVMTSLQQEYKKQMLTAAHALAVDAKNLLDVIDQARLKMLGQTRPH
Description: Fluorescence polarization competition (FAK-paxillin) assay. The format is binding. Particulars: for Ki: read-out: FP (Ki) data. As to the method: The IC50 was calculated using a four-parameter dose-response inhibition model, with the bottom fit constrained to the lower plateau of the binding curve.
(Polarisation of emitted light reports the rotation of a fluorescent probe.)

The mark [7] stands for this setting: one-site kinetic fit, mean ± SD of n = 2-5 biological replicates, Tris pH 8.0, read-out: SPR KD.

Where two headings read alike, the source gives them in different places. Bridge positions count the residues as written; N and C are the ends. Square brackets hold non-standard residues; d marks the D form. Peptide text beside a SMILES is read from it. R8 = C=CCCCCCC[C@@](C)(N)C(=O)O; S5 = C=CCCC[C@](C)(N)C(=O)O

Chain of trypsin (Bos taurus, UniProt P00760) (P00760 24-246): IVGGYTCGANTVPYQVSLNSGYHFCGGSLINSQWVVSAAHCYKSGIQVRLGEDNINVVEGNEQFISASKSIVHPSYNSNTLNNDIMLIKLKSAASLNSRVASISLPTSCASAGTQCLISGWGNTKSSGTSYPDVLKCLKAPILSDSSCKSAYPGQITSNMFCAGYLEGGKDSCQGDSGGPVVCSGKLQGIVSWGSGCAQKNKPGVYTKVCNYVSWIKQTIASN

In data set [1], `CC(=O)N[C@@H](CC(N)=O)C(=O)N[C@@H](CC(C)C)C(=O)N[C@@H](CO)C(=O)N[C@@H](CCC(=O)O)C(=O)N[C@@H](CC(C)C)C(=O)N[C@@H](CC(=O)O)C(=O)N[C@@H](CCCNC(=N)N)C(=O)N[C@@H](CC(C)C)C(=O)N[C@@H](CC(C)C)C(=O)N[C@@H](CC(C)C)C(=O)N[C@@H](CCC(=O)O)C(=O)N[C@@H](CC(C)C)C(=O)N[C@@H](CC(N)=O)C(N)=O` [LD2, reference compound] gave a share remaining at 0.25 h, 100 µM of 76%; an amount remaining at 0.5 h, 100 µM of 70%; an amount remaining at 1 h, 100 µM of 29%; an amount remaining at 2 h, 100 µM of 16%. In data set [1], this compound gave a share remaining at 3 h, 100 µM of 16%; a fraction remaining at 4 h, 100 µM of 13%; an amount remaining at 6 h, 100 µM of 0%; a fraction remaining at 7 h, 100 µM of 0%. In data set [1], this compound yielded an amount remaining at 24 h, 100 µM of 0% and an amount remaining at 48 h, 100 µM of 0%. The “trypsin proteolysis t1/2” value in data set [2] was determined as 46.8 min. This compound returned a half-life at 100 µM in data set [3] of 47 min.
Take `C=CCCCCCC[C@@](C)(NC(=O)[C@H](CC(C)C)NC(=O)[C@H](CC(N)=O)NC(C)=O)C(=O)N[C@@H](CCC(=O)O)C(=O)N[C@@H](CC(C)C)C(=O)N[C@@H](CC(=O)O)C(=O)N[C@@H](CCCNC(=N)N)C(=O)N[C@@H](CC(C)C)C(=O)N[C@@H](CC(C)C)C(=O)N[C@@](C)(CCCC=C)C(=O)N[C@@H](CCC(=O)O)C(=O)N[C@@H](CC(C)C)C(=O)N[C@@H](CC(N)=O)C(N)=O` [compound 2013]: the helical content in data set [4] was found to be 70%. Moreover, the equilibrium dissociation constant (Kd) in data set [5] (Rep2, read-out: SPR (KD)) was 35.6 µM.
On to `CC(=O)N[C@@H](CC(N)=O)C(=O)N[C@@H](CC(C)C)C(=O)N[C@]1(C)CCCCCCC=CCCC[C@@](C)(C(=O)N[C@@H](CCC(=O)O)C(=O)N[C@@H](CCC(=O)O)C(=O)N[C@@H](CC(N)=O)C(N)=O)NC(=O)[C@H](CC(C)C)NC(=O)[C@H](CC(C)C)NC(=O)[C@H](CCCNC(=N)N)NC(=O)[C@H](CC(=O)O)NC(=O)[C@H](CCC(=O)O)NC(=O)[C@H](CCC(=O)O)NC1=O` [compound 2014] (Ac-NL[R8]EEDRLL[S5]EEN-NH2; staple 3-10), for which the Kd was > 200 µM in data set [5] (Rep1, read-out: SPR (KD)); > 200 µM in data set [5] (Rep2, read-out: SPR (KD)); > 200 µM in data set [5] (Rep3, read-out: SPR (KD)); > 200 µM in data set [5] (Rep4, read-out: SPR (KD)); > 200 µM in data set [5] (setting [7]). Besides, the “SPR KD” value in data set [5] (one-site kinetic fit, mean ± SD of n = 2-5 biological replicates, Tris pH 8.0) was “did not bind FAT”. Moreover, the “FP Ki” value in data set [6] (25 µM FAT, 0.1 µM probe, 3 h, mean ± SD, n = 3) was “did not bind FAT”. The Ki in data set [6] (Rep1) is > 1250 µM.
For `CC(=O)N[C@@H](CC(N)=O)C(=O)N[C@@H](CC(C)C)C(=O)N[C@@H](CO)C(=O)N[C@]1(C)CCCCCCC=CCCC[C@@](C)(C(=O)N[C@@H](CC(C)C)C(=O)N[C@@H](CC(N)=O)C(N)=O)NC(=O)[C@H](CC(C)C)NC(=O)[C@H](CC(C)C)NC(=O)[C@H](CC(C)C)NC(=O)[C@H](CCCNC(=N)N)NC(=O)[C@H](CC(=O)O)NC(=O)[C@H](CC(C)C)NC1=O` [compound 1905] (Ac-NLS[R8]LDRLLL[S5]LN-NH2; staple 4-11), the dissociation constant Kd in data set [5] (setting [7]) amounted to 146 µM. For the same compound, the Ki in data set [6] (Rep1), in data set [6] (Rep2) and in data set [6] (Rep3) was > 1250 µM throughout.

For orientation: amount remaining means the share of the starting amount still present when the sample was taken. The low end stands for more turnover, the high end for less turnover. A word on the half-life: it is how long it takes for the measured level to halve. A lower half-life goes with rapid decline. By Kd is commonly meant the equilibrium constant for the complex coming apart. As a reminder, the Ki is a measure of affinity in units of concentration, obtained from inhibition or displacement.

The record behind these values is article PMC11871066, “Structure-based discovery of hydrocarbon-stapled paxillin peptides that block FAK scaffolding in cancer” (Nature Communications, 2025).
